Usually IC50 stands for the point on the concentration scale where inhibition reaches its midpoint.

One data set has as its system CCRF-CEM. The experiment in a line: Cytotoxicity against human CCRF-CEM cells assessed as cell growth inhibition. In kind it is functional, cell-based.
For a further data set, the system named is HL-60(TB). Kind of data set: Cytotoxicity against human HL-60(TB) cells assessed as cell growth inhibition. In kind it is functional, cell-based.
In another data set the test system is K562. The experiment in a line: Cytotoxicity against human K562 cells assessed as cell growth inhibition. In kind it is functional, cell-based.
Another data set has as its system MOLT-4. Kind of data set: Cytotoxicity against human MOLT-4 cells assessed as cell growth inhibition. The data set is classed as functional, cell-based.
A further data set deals with RPMI-8226. Kind of data set: Cytotoxicity against human RPMI-8226 cells assessed as cell growth inhibition. The data set is classed as functional, cell-based.
The test system of another data set is A549. The experiment in a line: Cytotoxicity against human A549 cells assessed as cell growth inhibition. In kind it is functional, cell-based.
The subject of another data set is HOP-62. Kind of data set: Cytotoxicity against human HOP-62 cells assessed as cell growth inhibition. The data set is classed as functional, cell-based.
A further data set has as its system HOP-92. The experiment in a line: Cytotoxicity against human HOP-92 cells assessed as cell growth inhibition. In kind it is functional, cell-based.
The next data set relates to NCI-H226. Kind of data set: Cytotoxicity against human NCI-H226 cells assessed as cell growth inhibition. In kind it is functional, cell-based.
Another data set concerns NCI-H23. The experiment in a line: Cytotoxicity against human NCI-H23 cells assessed as cell growth inhibition. The data set is classed as functional, cell-based.
In a further data set the test system is NCI-H460. Kind of data set: Cytotoxicity against human NCI-H460 cells assessed as cell growth inhibition. The data set is classed as functional, cell-based.
The test system of the next data set is NCI-H522. The experiment in a line: Cytotoxicity against human NCI-H522 cells assessed as cell growth inhibition. In kind it is functional, cell-based.
The subject of the next data set is COLO 205. The experiment in a line: Cytotoxicity against human COLO 205 cells assessed as cell growth inhibition. The data set is classed as functional, cell-based.
Another data set concerns HCC 2998. The experiment in a line: Cytotoxicity against human HCC 2998 cells assessed as cell growth inhibition. In kind it is functional, cell-based.
A further data set concerns HCT-116. The experiment in a line: Cytotoxicity against human HCT-116 cells assessed as cell growth inhibition. In kind it is functional, cell-based.
The subject of another data set is HCT-15. Kind of data set: Cytotoxicity against human HCT-15 cells assessed as cell growth inhibition. The data set is classed as functional, cell-based.
The subject of data set [1] is HT-29. Kind of data set: Cytotoxicity against human HT-29 cells assessed as cell growth inhibition. In kind it is functional, cell-based.
The subject of another data set is KM12. Kind of data set: Cytotoxicity against human KM12 cells assessed as cell growth inhibition. The data set is classed as functional, cell-based.
For a further data set, the system named is SW-620. Kind of data set: Cytotoxicity against human SW620 cells assessed as cell growth inhibition. The data set is classed as functional, cell-based.
Another data set deals with SF-268. Kind of data set: Cytotoxicity against human SF-268 cells assessed as cell growth inhibition. The data set is classed as functional, cell-based.
The test system of the next data set is SF-539. The experiment in a line: Cytotoxicity against human SF-539 cells assessed as cell growth inhibition. The data set is classed as functional, cell-based.
The next data set relates to SNB-19. The experiment in a line: Cytotoxicity against human SNB-19 cells assessed as cell growth inhibition. In kind it is functional, cell-based.
The subject of the next data set is SNB-75. Kind of data set: Cytotoxicity against human SNB-75 cells assessed as cell growth inhibition. In kind it is functional, cell-based.
For another data set, the system named is U-251. Kind of data set: Cytotoxicity against human U-251 cells assessed as cell growth inhibition. In kind it is functional, cell-based.
Another data set has as its system Malme-3M. Kind of data set: Cytotoxicity against human Malme-3M cells assessed as cell growth inhibition. In kind it is functional, cell-based.
Another data set concerns M14. Kind of data set: Cytotoxicity against human M14 cells assessed as cell growth inhibition. In kind it is functional, cell-based.
The subject of the next data set is MDA-MB-435. Kind of data set: Cytotoxicity against human MDA-MB-435 cells assessed as cell growth inhibition. The data set is classed as functional, cell-based.
In a further data set the test system is SK-MEL-2. The experiment in a line: Cytotoxicity against human SK-MEL-2 cells assessed as cell growth inhibition. The data set is classed as functional, cell-based.
Another data set concerns SK-MEL-28. Kind of data set: Cytotoxicity against human SK-MEL-28 cells assessed as cell growth inhibition. The data set is classed as functional, cell-based.
In a further data set the test system is SK-MEL-5. Kind of data set: Cytotoxicity against human SK-MEL-5 cells assessed as cell growth inhibition. In kind it is functional, cell-based.
The next data set relates to UACC-257. The experiment in a line: Cytotoxicity against human UACC-257 cells assessed as cell growth inhibition. In kind it is functional, cell-based.
The next data set has as its system UACC-62. The experiment in a line: Cytotoxicity against human UACC-62 cells assessed as cell growth inhibition. The data set is classed as functional, cell-based.
The next data set has as its system IGROV-1. Kind of data set: Cytotoxicity against human IGROV-1 cells assessed as cell growth inhibition. In kind it is functional, cell-based.
A further data set relates to OVCAR-3. The experiment in a line: Cytotoxicity against human OVCAR-3 cells assessed as cell growth inhibition. The data set is classed as functional, cell-based.
The subject of the next data set is OVCAR-4. The experiment in a line: Cytotoxicity against human OVCAR-4 cells assessed as cell growth inhibition. The data set is classed as functional, cell-based.
For another data set, the system named is OVCAR-5. Kind of data set: Cytotoxicity against human OVCAR-5 cells assessed as cell growth inhibition. In kind it is functional, cell-based.
In another data set the test system is OVCAR-8. Kind of data set: Cytotoxicity against human OVCAR-8 cells assessed as cell growth inhibition. In kind it is functional, cell-based.
The test system of another data set is NCI/ADR-RES. The experiment in a line: Cytotoxicity against human NCI/ADR-RES cells assessed as cell growth inhibition. The data set is classed as functional, cell-based.
A further data set deals with SK-OV-3. Kind of data set: Cytotoxicity against human SK-OV-3 cells assessed as cell growth inhibition. In kind it is functional, cell-based.
The test system of the next data set is 786-0. Kind of data set: Cytotoxicity against human 786-0 cells assessed as cell growth inhibition. In kind it is functional, cell-based.
In the next data set the test system is A498. The experiment in a line: Cytotoxicity against human A498 cells assessed as cell growth inhibition. The data set is classed as functional, cell-based.
Another data set deals with ACHN. The experiment in a line: Cytotoxicity against human ACHN cells assessed as cell growth inhibition. In kind it is functional, cell-based.
The subject of a further data set is CAKI-1. The experiment in a line: Cytotoxicity against human CAKI-1 cells assessed as cell growth inhibition. The data set is classed as functional, cell-based.
A further data set has as its system RXF 393. The experiment in a line: Cytotoxicity against human RXF 393 cells assessed as cell growth inhibition. In kind it is functional, cell-based.
A further data set deals with SN12C. Kind of data set: Cytotoxicity against human SN12C cells assessed as cell growth inhibition. In kind it is functional, cell-based.
The next data set has as its system TK-10. Kind of data set: Cytotoxicity against human TK-10 cells assessed as cell growth inhibition. The data set is classed as functional, cell-based.
The test system of the next data set is UO-31. Kind of data set: Cytotoxicity against human UO-31 cells assessed as cell growth inhibition. In kind it is functional, cell-based.
The test system of the next data set is PC-3. The experiment in a line: Cytotoxicity against human PC-3 cells assessed as cell growth inhibition. In kind it is functional, cell-based.
Another data set deals with DU-145. The experiment in a line: Cytotoxicity against human DU-145 cells assessed as cell growth inhibition. In kind it is functional, cell-based.
The next data set deals with MCF7. Kind of data set: Cytotoxicity against human MCF7 cells assessed as cell growth inhibition. In kind it is functional, cell-based.
Another data set relates to MDA-MB-231. Kind of data set: Cytotoxicity against human MDA-MB-231 cells assessed as cell growth inhibition. In kind it is functional, cell-based.
Another data set concerns Hs-578T. Kind of data set: Cytotoxicity against human Hs-578T cells assessed as cell growth inhibition. The data set is classed as functional, cell-based.
The subject of the next data set is BT-549. Kind of data set: Cytotoxicity against human BT-549 cells assessed as cell growth inhibition. In kind it is functional, cell-based.
In a further data set the test system is T47D. The experiment in a line: Cytotoxicity against human T47D cells assessed as cell growth inhibition. In kind it is functional, cell-based.
Data set [2] concerns HT-29. Kind of data set: Antiproliferative activity against human HT-29 cells assessed as reduction in cell viability. In kind it is functional, cell-based.
Data set [3] has as its system Panel NCI-60 (60 carcinoma cell lines). The experiment in a line: Cytotoxicity against human Panel NCI-60 (60 carcinoma cell lines) assessed as mean growth inhibition. In kind it is functional.
Data set [4] can be described thus: Cytotoxicity against human hTERT-HME1 cells assessed as cell growth inhibition. The data set is classed as toxicity, cell-based.
A short description of data set [5]: Cytotoxicity against human F180 cells assessed as cell growth inhibition. The data set is classed as toxicity, cell-based.

Turning to `O=c1[nH]cc(F)c(=O)[nH]1` [FLUOROURACIL], the IC50 in the data set with CCRF-CEM was 9.97 µM; in the data set with HL-60(TB) it was 2.3 µM; in the data set on K562, 3.58 µM; in the data set with MOLT-4, 0.35 µM; in the data set with RPMI-8226 it was 0.04 µM; in the data set with A549, 0.18 µM. Further, the IC50 with HOP-62 came out at 0.39 µM; with HOP-92 it was 77.9 µM; in the data set on NCI-H226, 54.7 µM; in the data set with NCI-H23 it was 0.33 µM; in the data set on NCI-H460, 0.05 µM; in the data set on NCI-H522, 7.27 µM. For the same compound, the IC50 in the data set on COLO 205 turned out to be 0.15 µM; with HCC 2998, 0.05 µM; in the data set on HCT-116 it was 0.22 µM; in the data set on HCT-15 it was 0.11 µM; with HT-29 [1] it was 0.17 µM; in the data set on KM12, 0.21 µM. Moreover, the half-inhibitory concentration (IC50) turned out to be 0.92 µM in the data set on SW-620; 1.62 µM in the data set on SF-268; 0.06 µM with SF-539; 3.81 µM with SNB-19; 78.7 µM in the data set with SNB-75; 0.92 µM in the data set with U-251. The 50% inhibitory concentration (IC50) with Malme-3M is 0.05 µM; with M14 it was 0.98 µM; in the data set on MDA-MB-435, 0.07 µM; with SK-MEL-2, 56.7 µM; in the data set with SK-MEL-28, 1.03 µM; in the data set with SK-MEL-5, 0.46 µM. The IC50 in the data set on UACC-257 came to 3.55 µM; in the data set with UACC-62, 0.52 µM; in the data set on IGROV-1, 1.22 µM; with OVCAR-3 it was 0.01 µM; with OVCAR-4, 4.43 µM; in the data set on OVCAR-5 it was 10.9 µM. Also, the IC50 with OVCAR-8 stood at 1.74 µM; with NCI/ADR-RES it was 0.31 µM; in the data set on SK-OV-3, 21.8 µM; with 786-0 it was 0.72 µM; in the data set with A498, 0.35 µM; with ACHN it was 0.27 µM. Moreover, the IC50 in the data set with CAKI-1 turned out to be 0.07 µM; in the data set with RXF 393 it was 2.61 µM; in the data set with SN12C, 0.49 µM; in the data set on TK-10, 1.12 µM; in the data set on UO-31 it was 1.42 µM; in the data set on PC-3 it was 2.36 µM. Moreover, the IC50 in the data set on DU-145 is 0.36 µM; in the data set on MCF7, 0.07 µM; with MDA-MB-231, 6.6 µM; with Hs-578T it was 9.77 µM; in the data set on BT-549, 10.6 µM; in the data set on T47D, 8.12 µM.

For `O=C(Nc1ccc(OS(=O)(=O)c2ccc(F)cc2)cc1)C1CCCCC1`, the IC50 in the data set on HT-29 [2] stood at 4.73 µM.

As for `O=C(n1ccc2cc(OS(=O)(=O)c3ccccc3)ccc21)C12CC3CC(CC(C3)C1)C2`, the “inhibition (INH)” value in data set [3] is 88%.

For the compound `COc1cccc2c1C(=O)c1c(O)c3c(c(O)c1C2=O)C[C@@](O)(C(=O)CO)C[C@@H]3O[C@H]1C[C@H](N)[C@H](O)[C@H](C)O1` [DOXORUBICIN], the IC50 in [4] worked out at 0.77 µM; in data set [5] it was 0.14 µM.

With `O=C(Nc1ccc(NS(=O)(=O)c2ccccc2)cc1)C12CC3CC(CC(C3)C1)C2`, in [3], the “inhibition (INH)” value was determined as 97.88%.

As for `O=C(n1ccc2cc(OS(=O)(=O)c3ccc(F)cc3)ccc21)C12CC3CC(CC(C3)C1)C2`, the “inhibition (INH)” value in data set [3] was determined as 86%.

The values above are taken from ChEMBL document CHEMBL5331074, “Design and synthesis of new adamantyl derivatives as promising antiproliferative agents” (Eur J Med Chem, 2023).
